What was measured:
JAK1/2-STAT3 pathway = test: IL-6-induced STAT3 phosphorylation in follicular keratinocytes of the outer root sheath (ORS); format: cell-based, human; details: 5 μM, 1 h pre-treatment, IL-6 100 ng/ml 15 minutes
5α-reductase = 5α-reductase activity (DHT/testosterone ratio) in dermal papilla cells, C14 testosterone metabolism; format: cell-based, human; details: 10 μM, incubation 24 h+24 h

SMILES	% of STAT phosphorylated, Mean (JAK1/2-STAT3 pathway) [%]	% inh (DHT/testosterone ratio, relative to the control condition) (5α-reductase) [%]	Mean DHT/testosterone ratio (5α-reductase activity) (5α-reductase)
N#CC[C@H](C1CCCC1)n1cc(-c2ncnc3[nH]ccc23)cn1 [Ruxolitinib, ruxolitinib]	102	–	–
CC(C)(C)NC(=O)[C@H]1CC[C@H]2[C@@H]3CC[C@H]4NC(=O)C=C[C@]4(C)[C@H]3CC[C@]12C [Finasteride, finasteride]	–	94.2	0.02
